Data from patent publication US20090035784A1 (priority 2004, published 2009).
“Also recorded” adds a separate entry of the source. Like-named read-outs stand apart in the source and are kept apart here.

Columns and labels:
Assay type in all cases: cell-based
NPC1L1 [1] = target: T1, NPC1L1 (Homo sapiens, UniProt Q9UHC9, T1073A)
T1 construct: expressed in transfected cells; host or cells: Huh7-derived cells; the L1 3+ line (NPC1L1-overexpressing clone 3) is proposed for screening
T1 sequence (Q9UHC9 22-1359 T1073A): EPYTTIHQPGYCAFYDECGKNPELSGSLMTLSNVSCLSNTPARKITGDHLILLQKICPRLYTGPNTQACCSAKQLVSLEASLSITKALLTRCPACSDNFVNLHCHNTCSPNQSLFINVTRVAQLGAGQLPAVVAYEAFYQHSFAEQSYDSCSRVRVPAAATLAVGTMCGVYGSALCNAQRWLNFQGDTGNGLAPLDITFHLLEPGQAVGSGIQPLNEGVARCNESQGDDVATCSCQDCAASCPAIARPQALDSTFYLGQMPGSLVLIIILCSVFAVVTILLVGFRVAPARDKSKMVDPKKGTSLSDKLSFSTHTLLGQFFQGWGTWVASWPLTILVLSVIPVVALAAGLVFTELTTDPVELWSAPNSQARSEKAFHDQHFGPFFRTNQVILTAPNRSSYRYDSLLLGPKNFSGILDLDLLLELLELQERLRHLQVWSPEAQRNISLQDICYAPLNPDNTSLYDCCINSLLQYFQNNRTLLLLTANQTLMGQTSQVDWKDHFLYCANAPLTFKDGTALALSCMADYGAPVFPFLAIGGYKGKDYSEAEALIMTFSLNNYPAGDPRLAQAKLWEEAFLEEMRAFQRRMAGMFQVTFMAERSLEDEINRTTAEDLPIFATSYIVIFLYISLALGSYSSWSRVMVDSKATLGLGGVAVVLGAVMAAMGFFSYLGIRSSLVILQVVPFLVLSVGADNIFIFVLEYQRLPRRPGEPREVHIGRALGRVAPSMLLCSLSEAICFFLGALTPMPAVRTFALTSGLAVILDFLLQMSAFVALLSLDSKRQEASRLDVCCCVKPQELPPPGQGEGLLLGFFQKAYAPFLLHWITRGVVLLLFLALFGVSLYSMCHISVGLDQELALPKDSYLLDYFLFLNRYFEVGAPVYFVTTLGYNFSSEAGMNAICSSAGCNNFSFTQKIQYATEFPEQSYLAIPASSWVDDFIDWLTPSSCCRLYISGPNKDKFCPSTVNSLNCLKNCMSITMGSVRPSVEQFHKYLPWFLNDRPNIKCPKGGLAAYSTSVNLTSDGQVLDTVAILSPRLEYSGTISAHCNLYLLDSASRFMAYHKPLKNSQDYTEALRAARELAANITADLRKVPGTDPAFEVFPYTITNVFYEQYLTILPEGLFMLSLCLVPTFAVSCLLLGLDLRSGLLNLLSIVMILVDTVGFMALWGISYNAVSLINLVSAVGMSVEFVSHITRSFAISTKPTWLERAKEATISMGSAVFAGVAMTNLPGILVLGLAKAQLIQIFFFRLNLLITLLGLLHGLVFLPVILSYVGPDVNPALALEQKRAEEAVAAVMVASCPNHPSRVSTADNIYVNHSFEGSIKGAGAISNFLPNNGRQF

NPC1L1 [2] = target: T1, NPC1L1; remark: listed apart in the source
NPC1 = target: T2, NPC1 (Homo sapiens, UniProt O15118); experiment: Lysosomal cholesterol storage in normal human fibroblasts treated with inhibitor; details: normal human fibroblasts incubated overnight, fluorescent cholesterol probe, FIG. 6 and 7
T2 construct: endogenous in cells; host or cells: normal human fibroblasts
T2 sequence (O15118 23-1278): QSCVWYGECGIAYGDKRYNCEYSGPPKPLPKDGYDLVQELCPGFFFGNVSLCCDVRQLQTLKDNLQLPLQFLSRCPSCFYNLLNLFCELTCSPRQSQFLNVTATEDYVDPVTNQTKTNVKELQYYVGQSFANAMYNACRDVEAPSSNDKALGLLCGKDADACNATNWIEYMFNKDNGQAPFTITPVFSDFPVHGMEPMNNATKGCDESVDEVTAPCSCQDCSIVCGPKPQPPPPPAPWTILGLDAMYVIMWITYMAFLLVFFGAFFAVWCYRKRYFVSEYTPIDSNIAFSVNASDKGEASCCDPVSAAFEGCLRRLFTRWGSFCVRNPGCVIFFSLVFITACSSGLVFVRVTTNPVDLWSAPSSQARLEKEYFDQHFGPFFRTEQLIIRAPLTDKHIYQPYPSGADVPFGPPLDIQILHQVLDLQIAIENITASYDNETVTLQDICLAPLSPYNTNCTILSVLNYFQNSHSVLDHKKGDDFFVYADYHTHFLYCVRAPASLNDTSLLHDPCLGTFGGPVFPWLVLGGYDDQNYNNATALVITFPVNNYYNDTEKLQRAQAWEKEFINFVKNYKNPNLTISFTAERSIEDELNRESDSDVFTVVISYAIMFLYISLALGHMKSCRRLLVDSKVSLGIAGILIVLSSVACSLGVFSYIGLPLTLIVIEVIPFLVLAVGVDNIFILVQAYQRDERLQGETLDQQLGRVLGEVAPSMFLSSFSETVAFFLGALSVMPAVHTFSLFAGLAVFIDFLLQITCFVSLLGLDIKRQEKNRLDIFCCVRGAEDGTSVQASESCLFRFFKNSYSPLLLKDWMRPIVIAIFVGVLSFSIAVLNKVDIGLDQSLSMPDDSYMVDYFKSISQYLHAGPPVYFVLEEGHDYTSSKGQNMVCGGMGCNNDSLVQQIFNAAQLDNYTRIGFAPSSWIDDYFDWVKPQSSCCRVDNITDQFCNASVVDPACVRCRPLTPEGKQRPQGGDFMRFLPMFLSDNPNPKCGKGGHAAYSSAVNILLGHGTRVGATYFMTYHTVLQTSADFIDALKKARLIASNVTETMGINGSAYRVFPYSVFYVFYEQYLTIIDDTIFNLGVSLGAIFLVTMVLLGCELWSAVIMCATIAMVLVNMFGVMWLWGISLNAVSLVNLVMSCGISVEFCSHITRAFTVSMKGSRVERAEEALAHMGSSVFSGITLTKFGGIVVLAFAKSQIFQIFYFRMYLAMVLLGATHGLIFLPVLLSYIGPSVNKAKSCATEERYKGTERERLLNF

Row | Structure (SMILES) | identification as inhibitor of NPC1L1 (NPC1L1 [1]) | signal of NPC1L1 promoter upregulation (inhibition of the NPC1L1 protein) (NPC1L1 [2]) | other results
1 | CC(=O)C1=C(Nc2ccccc2C)CCC1=O [2-acetyl-3-[(2-methylphenyl)amino]-2-cyclopenten-1-one] | NPC1L1 inhibitors have been identified | positive signal | 
2 | c1ccc2c(CN3CCNCC3)cccc2c1 [1-(1-naphthylmethyl)piperazine] | NPC1L1 inhibitors have been identified |  | 
3 | CCCCN1CCCCC1C(=O)Nc1c(C)cccc1C (stereo not shown) [#7, 1-Butyl-N(2,6-diemethylphenyl)2 piperidine carboxamide] | NPC1L1 inhibitors have been identified | positive signal | 
4 | CC1CCNCC1 [#2, 4-methylpiperidine] |  |  | NPC1 inhibition seen as lysosomal cholesterol build-up (NPC1): weaker NPC1 inhibitor
5 | COc1ccc(NC2=C(C)C(=O)CC2)cc1 [3-[(4-methoxyphenyl)amino]-2-methyl-2-cyclopenten-1-one] | NPC1L1 inhibitors have been identified |  | 
6 | CC(Nc1ccccc1O)=C1C(=O)CSC1=O [3 {1-[(2-hydroxyphenyl)amino]ethylidene}-2,4(3H, 5H)-thiophenedione] | NPC1L1 inhibitors have been identified | positive signal | 
7 | CC(Nc1ccccc1C)=C1C(=O)CSC1=O [3{1-[(2-methylphenyl)amino]ethylidene}-2,4(3H, 5H)-thiophenedione] | NPC1L1 inhibitors have been identified |  | 
8 | CCCC(=O)C1(c2ccccc2)CCNCC1.Cl [#5, 4-butyryl-4-phenylpiperidine hydrochloride] |  |  | NPC1 inhibition seen as lysosomal cholesterol build-up (NPC1; hydrochloride): distinguishable lysosomes filled with cholesterol; NPC1 inhibition seen as lysosomal cholesterol build-up (NPC1; listed as 4-butyryl-4-phenylpiperidine, hydrochloride): NPC1 inhibitor
9 | CC(=O)c1ccc(NC(=O)c2cccs2)cc1 [N-(4-acetylphenyl)-2-thiophenecarboxamide] | NPC1L1 inhibitors have been identified |  | 
10 | Cl.N#CC1(c2ccccc2)CCNCC1 [#1, 4-Phenyl-4-piperidinecarbonitrile Hydrochloride] |  | positive signal | identification as inhibitor of NPC1L1 (NPC1L1 [1]; Hydrochloride): NPC1L1 inhibitors have been identified; also recorded: identified as an inhibitor of NPC1L1; NPC1 inhibition seen as lysosomal cholesterol build-up (NPC1; hydrochloride): did not demonstrate any NPC1 inhibition; NPC1 inhibition seen as lysosomal cholesterol build-up (NPC1; listed as 4-cyano-4-phenylpiperidine, Hydrochloride): weaker NPC1 inhibitor
11 | COc1ccccc1NC1=C(C)C(=O)CC1 [3-[(2-methoxyphenyl)amino]-2-methyl-2-cyclopenten-1-one] | NPC1L1 inhibitors have been identified |  | 
12 | O=C1[C@H](CC[C@H](O)c2ccc(F)cc2)[C@@H](c2ccc(O)cc2)N1c1ccc(F)cc1 [Ezetamibe, reference compound] |  | did not inhibit NPC1L1 | 
